Converted amounts (≈) assume the structure as drawn. Where two headings read alike, the source gives them in different places.
Tests used:
Assay type in all cases: cell-based
E. cloacae 963 = assay: in vitro antibacterial activity, agar plate dilution method (MIC); conditions: for MIC: read-out: Minimum Inhibitory Concentration (MIC)
Procedure: (§1) One platinum loopfull of each test microorganism incubated overnight in Mueller Hinton broth, was inoculated to Mueller Hinton agar (inoculum size: 10^6 CFU/ml). Such culture media containing various antibiotics in various concentrations were prepared. After incubation at 37° C. for 16 hours, the minimum inhibitory concentrations (MIC: μg/ml) were measured.

E. coli NIHJ JC2 = assay: as above; conditions: for MIC: Escherichia coli, read-out: Minimum Inhibitory Concentration (MIC)
Procedure: as §1

K. pneumoniae PCI-602 = assay: as above; conditions: for MIC: Klebsiella pneumoniae, read-out: Minimum Inhibitory Concentration (MIC)
Procedure: as §1

P. vulgaris HX-19 = assay: as above; conditions: for MIC: Proteus vulgaris, read-out: Minimum Inhibitory Concentration (MIC)
Procedure: as §1

S. aureus 209P NIHJ-JCl = assay: as above; conditions: for MIC: Staphylococcus aureus, read-out: Minimum Inhibitory Concentration (MIC)
Procedure: as §1

S. marcescens IAM 1184 = assay: as above; conditions: for MIC: Serratia marcescens, read-out: Minimum Inhibitory Concentration (MIC)
Procedure: as §1

S. aureus 109P NIHJ-JCl = assay: in vitro antibacterial activity, agar plate dilution method (MIC), second part of Table 1; conditions: Staphylococcus aureus, 109PNIHJJCL, read-out: Minimum Inhibitory Concentration (MIC)
Procedure: as §1

[1] = Enterobacter cloacae, E. cloacae 963, 10^6 CFU/ml, MH agar, 37° C., 16 hours
[2] = NIHJJC2, E. coli NIHJ JC2, 10^6 CFU/ml, MH agar, 37° C., 16 hours
[3] = PCI602, K. pneumoniae PCI-602, 10^6 CFU/ml, MH agar, 37° C., 16 hours
[4] = HX19, P. vulgaris HX-19, 10^6 CFU/ml, MH agar, 37° C., 16 hours
[5] = IAM1184, S. marcescens IAM 1184, 10^6 CFU/ml, MH agar, 37° C., 16 hours
[6] = S. aureus 109P NIHJ-JCl, 10^6 CFU/ml, MH agar, 37° C., 16 hours
[7] = Enterobacter cloacae, 963, 16 h
[8] = S. aureus 209P NIHJ-JCl, 10^6 CFU/ml, MH agar, 37° C., 16 hours

Compound | MIC (E. cloacae 963; [1]) [µg/mL] | MIC (E. coli NIHJ JC2; [2]) [µg/mL] | MIC (K. pneumoniae PCI-602; [3]) [µg/mL] | MIC (P. vulgaris HX-19; [4]) [µg/mL] | MIC (S. aureus 209P NIHJ-JCl; 209P, 16 h) [µg/mL] | MIC (S. marcescens IAM 1184; IAM1184, 16 h) [µg/mL] | MIC (S. marcescens IAM 1184; [5]) [µg/mL] | MIC (E. coli NIHJ JC2; NIHJJC2, 16 h) [µg/mL] | MIC (K. pneumoniae PCI-602; PCI602, 16 h) [µg/mL] | also measured
CC(C)(O/N=C(\C(=O)N[C@@H]1C(=O)N2C(C(=O)O)=C(OCc3ccncc3)CS[C@H]12)c1csc(N)n1)C(=O)O [Example 4, Disodium 7β-[2-(2-aminothiaxol-4-yl)-(Z)-2-(1-carboxylato-1-methylethoxyimino)acetamido]-3-(4-pyridylmethoxy)-3-cephem-4-carboxylate] | 0.039 | 0.39 | 0.05 | 0.0125 | 12.5 | 0.025 |  |  |  | 
CO/N=C(\C(=O)N[C@@H]1C(=O)N2C(C(=O)[O-])=C(OCc3cccc[n+]3C)CS[C@H]12)c1csc(N)n1 [Example 44, 7β-[2-(2-aminothiazol-4-yl)-(Z)-2-methoxyiminoacetamido]-3-(1-methyl-2-pyridiniomethoxy)-3-cephem-4-carboxylate] | 0.2 (≈ 0.396 µM) | 0.39 (≈ 0.773 µM) | 0.05 (≈ 0.0991 µM) | 0.2 (≈ 0.396 µM) |  |  | 0.2 (≈ 0.396 µM) |  |  | MIC (S. aureus 109P NIHJ-JCl; [6]): 0.2 µg/mL (≈ 0.396 µM)
CO/N=C(\C(=O)N[C@@H]1C(=O)N2C(C(=O)[O-])=C(OCc3cc[n+](C)cc3)CS[C@H]12)c1csc(N)n1 [Example 32, 7β-[2-(2-aminothiazol-4-yl)-(Z)-2-methoxyiminoacetamido]-3-(1-methyl-4-pyridiniomethoxy)-3-cephem-4-carboxylate] | 0.1 (≈ 0.198 µM) | 0.1 (≈ 0.198 µM) | 0.025 (≈ 0.0495 µM) | 0.2 (≈ 0.396 µM) |  |  | 0.05 (≈ 0.0991 µM) |  |  | MIC (S. aureus 109P NIHJ-JCl; [6]): 0.039 µg/mL (≈ 0.0773 µM)
CCO/N=C(\C(=O)N[C@@H]1C(=O)N2C(C(=O)[O-])=C(OCc3cc[n+](CC(=O)O)cc3)CS[C@H]12)c1csc(N)n1 [Example 51, Sodium 7β-[2-(2-aminothiazol-4-yl)-(Z)-2-ethoxyiminoacetamido]-3-(1-carboxylatomethyl-4-pyridiniomethoxy)-3-cephem-4-carboxylate] | 0.1 | 0.2 | 0.025 | 0.05 |  |  | 0.1 |  |  | MIC (S. aureus 109P NIHJ-JCl; 16 h): 3.12 µg/mL
NC(=O)c1ccc(COC2=C(C(=O)[O-])N3C(=O)[C@@H](NC(=O)/C(=N\OCC(=O)[O-])c4csc(N)n4)[C@H]3SC2)cc1.[Na+].[Na+] [Example 22, Disodium 7β-[2-(2-aminothiazol-4-yl)-(Z)-2-carboxylatomethoxyiminoacetamido]-3-(4-carbamoylbenzyloxy)-3-cephem-4-carboxylate] |  |  |  |  | 50 | 0.0125 |  | 0.05 | 0.025 | MIC (E. cloacae 963; [7]): 0.1 µg/mL; MIC (P. vulgaris HX-19; HX19, 16 h): 0.025 µg/mL
CO/N=C(\C(=O)N[C@@H]1C(=O)N2C(C(=O)[O-])=C(OCc3nc(C)cs3)CS[C@H]12)c1csc(N)n1.[Na+] [Example 16, Sodium 7β-[2-(2-aminothiazol-4-yl)-(Z)-2-methoxyiminoacetamido]-3-(4-methylthiazol-2-ylmethoxy)-3-cephem-4-carboxylate] |  |  |  |  | 3.12 | 0.2 |  | 0.2 | < 0.006 | MIC (E. cloacae 963; [7]): 0.2 µg/mL; MIC (P. vulgaris HX-19; HX19, 16 h): < 0.006 µg/mL
C[n+]1ccc(COC2=C(C(=O)[O-])N3C(=O)[C@@H](NC(=O)/C(=N\OCc4ccccc4CC(=O)O)c4csc(N)n4)[C@H]3SC2)cc1 [Example 40, Sodium 7β-[2-(2-aminothiazol-4-yl)-(Z)-2-(2-carboxylatomethylbenzyloxyimino)acetamido]-3-(1-methyl-4-pyridiniomethoxy)-3-cephem-4-carboxylate] | 0.39 | 0.39 | 0.05 | 0.0125 |  |  | 0.1 |  |  | MIC (S. aureus 109P NIHJ-JCl; [6]): 1.56 µg/mL
CO/N=C(\C(=O)N[C@@H]1C(=O)N2C(C(=O)[O-])=C(OCc3ccc(C#N)cc3)CS[C@H]12)c1csc(N)n1.[Na+] [Example 12, Sodium 7β-[2-(2-aminothiazol-4-yl)-(Z)-2-methoxyiminoacetamido]-3-(4-cyanobenzyloxy)-3-cephem-4-carboxylate] |  |  |  |  | 0.78 | 0.39 |  | 0.78 | 0.0125 | MIC (E. cloacae 963; [7]): 0.78 µg/mL; MIC (P. vulgaris HX-19; HX19, 16 h): 0.025 µg/mL
CO/N=C(\C(=O)N[C@@H]1C(=O)N2C(C(=O)O)=C(OCc3ccc(C(N)=O)cc3)CS[C@H]12)c1csc(N)n1 [Example 14, Sodium 7β-[2-(2-aminothiazol-4-yl)-(Z)-2-methoxyiminoacetamido]-3-(4-carbamoylbenzVloxy)-3-cephem-4-carboxylate] | 0.2 | 0.39 | < 0.006 | 0.05 |  |  | 0.1 |  |  | MIC (S. aureus 209P NIHJ-JCl; [8]): 3.12 µg/mL
CO/N=C(\C(=O)N[C@@H]1C(=O)N2C(C(=O)[O-])=C(c3csnn3)CS[C@H]12)c1csc(N)n1.[Na+] [Example 18, Sodium 7δ-[2-(2-aminothiazol-4-yl)-(Z)-2-methoxyiminoacetamido]-3-(1,2,3-thiadiazol-4-yl)-3-cephem-4-carboxylate] |  |  |  |  |  |  |  |  |  | Minimum Inhibitory Concentration (MIC) (E. cloacae 963; E. cloacae 963, 10^6 CFU/ml, MH agar, 37° C., 16 hours): 0.390 µg/mL; Minimum Inhibitory Concentration (MIC) (E. coli NIHJ JC2; E. coli NIHJ JC2, 10^6 CFU/ml, MH agar, 37° C., 16 hours): 0.390 µg/mL; Minimum Inhibitory Concentration (MIC) (K. pneumoniae PCI-602; K. pneumoniae PCI-602, 10^6 CFU/ml, MH agar, 37° C., 16 hours): 0.0125 µg/mL; Minimum Inhibitory Concentration (MIC) (P. vulgaris HX-19; P. vulgaris HX-19, 10^6 CFU/ml, MH agar, 37° C., 16 hours): 0.100 µg/mL; Minimum Inhibitory Concentration (MIC) (S. aureus 209P NIHJ-JCl; [8]): 3.12 µg/mL; Minimum Inhibitory Concentration (MIC) (S. marcescens IAM 1184; S. marcescens IAM 1184, 10^6 CFU/ml, MH agar, 37° C., 16 hours): 0.390 µg/mL
C=C(O/N=C(\C(=O)N[C@@H]1C(=O)N2C(C(=O)[O-])=C(OCc3cc[n+](C)cc3)CS[C@H]12)c1csc(N)n1)C(=O)O [Example 37, Sodium 7β-[2-(2-aminothiazol-4-yl)-(Z)-2-(1-carboxylatovinyloxyimino)acetamido]-3-(1-methyl-4-pyridiniomethoxy)-3-cephem-4-carboxylate] | 0.025 |  |  | 0.025 |  |  | < 0.006 | 0.025 | < 0.006 | MIC (S. aureus 109P NIHJ-JCl; 16 h): 1.56 µg/mL
CO/N=C(\C(=O)N[C@@H]1C(=O)N2C(C(=O)[O-])=C(OCc3ccncc3)CS[C@H]12)c1csc(N)n1.[Na+] [Example 1, Sodium 7β-[2-(2-aminothiazol-4-yl)-(Z)-2-methoxyiminoacetamido]-3-(4-pyridylmethoxy)-3-cephem-4-carboxylate] |  |  |  |  | 0.78 | 0.1 |  | 0.2 | < 0.006 | MIC (E. cloacae 963; [7]): 0.2 µg/mL; MIC (P. vulgaris HX-19; HX19, 16 h): 0.05 µg/mL
C[n+]1ccc(COC2=C(C(=O)[O-])N3C(=O)[C@@H](NC(=O)/C(=N\OC(C(=O)O)c4ccc(O)c(O)c4)c4csc(N)n4)[C@H]3SC2)cc1 (single isomer, unassigned) [Example 38, Sodium 7β-[2-(2-aminothiazol-4-yl)-(Z)-2-(α-carboxylato-3,4-dihydroxybenzyloxyimino)acetamido]-3-(1-methyl-4-pyridiniomethoxy)-3-cephem-4-carboxylate (diastereisomer A)] | 0.039 | 0.039 | 0.025 | 0.39 |  |  | 0.1 |  |  | MIC (S. aureus 109P NIHJ-JCl; [6]): 0.039 µg/mL
C[n+]1ccc(COC2=C(C(=O)[O-])N3C(=O)[C@@H](NC(=O)/C(=N\OC(C)(C)C(=O)O)c4csc(N)n4)[C@H]3SC2)cc1 [Example 36, Sodium 7β-[2-(2-aminothiazol-4-yl)-(Z)-2-(1-carboxylato-1-methylethoxyimino)acetamido]-3-(1-methy-4-pyridiniomethoxy)-3-cephem-4-carboxylate] | 0.05 | 0.05 | 0.0125 | 0.05 |  |  | 0.025 |  |  | MIC (S. aureus 109P NIHJ-JCl; 16 h): 6.25 µg/mL

From patent publication US4918070A, “Cephalosporin derivatives and antibacterial agents” (Banyu Pharmaceutical Co., Ltd., priority 1987, dated 1990)
